Laboratory results from PubChem BioAssay (NCI).
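Briefly, cells in 96-well plates were exposed to five compound concentrations for 48 h, and endpoints were estimated by linear interpolation. At the GI50, growth is halved. TGI marks complete inhibition of growth.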

Assays:
Experiment in all cases: NCI-60 cell line screen, 48 h
A498 renal = test system: A498 renal
A549 NSCLC = test system: A549 NSCLC
ACHN renal = test system: ACHN renal
BT-549 breast = test system: BT-549 breast
CAKI-1 renal = test system: CAKI-1 renal
CCRF-CEM leukemia = test system: CCRF-CEM leukemia
COLO 205 colon = test system: COLO 205 colon
DU-145 prostate = test system: DU-145 prostate
EKVX NSCLC = test system: EKVX NSCLC
HCC-2998 colon = test system: HCC-2998 colon
HCT-15 colon = test system: HCT-15 colon
HL-60(TB) leukemia = test system: HL-60(TB) leukemia
HOP-62 NSCLC = test system: HOP-62 NSCLC
HOP-92 NSCLC = test system: HOP-92 NSCLC
HS 578T breast = test system: HS 578T breast
HT29 colon = test system: HT29 colon
IGROV1 ovarian = test system: IGROV1 ovarian
K-562 leukemia = test system: K-562 leukemia
KM12 colon = test system: KM12 colon
LOX IMVI melanoma = test system: LOX IMVI melanoma
M14 melanoma = test system: M14 melanoma
MALME-3M melanoma = test system: MALME-3M melanoma
MCF7 breast = test system: MCF7 breast
MDA-MB-231 breast = test system: MDA-MB-231 breast
MDA-MB-435 = test system: MDA-MB-435
NCI-H226 lung = test system: NCI-H226 lung
NCI-H23 lung = test system: NCI-H23 lung
NCI-H460 lung = test system: NCI-H460 lung
NCI-H522 lung = test system: NCI-H522 lung
NCI/ADR-RES ovarian = test system: NCI/ADR-RES ovarian
OVCAR-3 ovarian = test system: OVCAR-3 ovarian
OVCAR-4 ovarian = test system: OVCAR-4 ovarian
OVCAR-5 ovarian = test system: OVCAR-5 ovarian
OVCAR-8 ovarian = test system: OVCAR-8 ovarian
PC-3 prostate = test system: PC-3 prostate
RPMI-8226 leukemia = test system: RPMI-8226 leukemia
RXF 393 renal = test system: RXF 393 renal
SF-268 CNS = test system: SF-268 CNS
SF-295 CNS = test system: SF-295 CNS
SK-MEL-2 melanoma = test system: SK-MEL-2 melanoma
SK-MEL-28 melanoma = test system: SK-MEL-28 melanoma
SK-MEL-5 melanoma = test system: SK-MEL-5 melanoma
SK-OV-3 ovarian = test system: SK-OV-3 ovarian
SNB-19 CNS = test system: SNB-19 CNS
SNB-75 CNS = test system: SNB-75 CNS
SR leukemia = test system: SR leukemia
SW-620 colon = test system: SW-620 colon
T-47D breast = test system: T-47D breast
TK-10 renal = test system: TK-10 renal
U251 CNS = test system: U251 CNS
UACC-257 melanoma = test system: UACC-257 melanoma
UACC-62 melanoma = test system: UACC-62 melanoma
UO-31 renal = test system: UO-31 renal
786-0 renal = test system: 786-0 renal
HCT-116 colon = test system: HCT-116 colon
MOLT-4 leukemia = test system: MOLT-4 leukemia
SF-539 CNS = test system: SF-539 CNS
SN12C renal = test system: SN12C renal

Compound: NC(CCCCO)C(=O)O (configuration not stated)
- TGI (A498 renal): > 100 µM
- TGI (A549 NSCLC): > 100 µM
- TGI (ACHN renal): > 100 µM
- TGI (BT-549 breast): > 100 µM
- TGI (CAKI-1 renal): > 100 µM
- TGI (CCRF-CEM leukemia): > 100 µM
- TGI (COLO 205 colon): > 100 µM
- TGI (DU-145 prostate): > 100 µM
- TGI (EKVX NSCLC): > 100 µM
- TGI (HCC-2998 colon): > 100 µM
- TGI (HCT-15 colon): > 100 µM
- TGI (HL-60(TB) leukemia): > 100 µM
- TGI (HOP-62 NSCLC): > 100 µM
- TGI (HOP-92 NSCLC): > 100 µM
- TGI (HS 578T breast): > 100 µM
- TGI (HT29 colon): > 100 µM
- TGI (IGROV1 ovarian): > 100 µM
- TGI (K-562 leukemia): > 100 µM
- TGI (KM12 colon): > 100 µM
- TGI (LOX IMVI melanoma): > 100 µM
- TGI (M14 melanoma): > 100 µM
- TGI (MALME-3M melanoma): > 100 µM
- TGI (MCF7 breast): > 100 µM
- TGI (MDA-MB-231 breast): > 100 µM
- TGI (MDA-MB-435): > 100 µM
- TGI (NCI-H226 lung): > 100 µM
- TGI (NCI-H23 lung): > 100 µM
- TGI (NCI-H460 lung): > 100 µM
- TGI (NCI-H522 lung): > 100 µM
- TGI (NCI/ADR-RES ovarian): > 100 µM
- TGI (OVCAR-3 ovarian): > 100 µM
- TGI (OVCAR-4 ovarian): > 100 µM
- TGI (OVCAR-5 ovarian): > 100 µM
- TGI (OVCAR-8 ovarian): > 100 µM
- TGI (PC-3 prostate): > 100 µM
- TGI (RPMI-8226 leukemia): > 100 µM
- TGI (RXF 393 renal): > 100 µM
- TGI (SF-268 CNS): > 100 µM
- TGI (SF-295 CNS): > 100 µM
- TGI (SK-MEL-2 melanoma): > 100 µM
- TGI (SK-MEL-28 melanoma): > 100 µM
- TGI (SK-MEL-5 melanoma): > 100 µM
- TGI (SK-OV-3 ovarian): > 100 µM
- TGI (SNB-19 CNS): > 100 µM
- TGI (SNB-75 CNS): > 100 µM
- TGI (SR leukemia): > 100 µM
- TGI (SW-620 colon): > 100 µM
- TGI (T-47D breast): > 100 µM
- TGI (TK-10 renal): > 100 µM
- TGI (U251 CNS): > 100 µM
- TGI (UACC-257 melanoma): > 100 µM
- TGI (UACC-62 melanoma): > 100 µM
- TGI (UO-31 renal): > 100 µM

Compound: CCN(Cc1cc(F)cc(F)c1)c1ccc(CO)c(Cl)c1
- GI50 (786-0 renal): 12.5 µM
- TGI (786-0 renal): 27.2 µM
- GI50 (A498 renal): 0.0343 µM
- TGI (A498 renal): 0.167 µM
- GI50 (A549 NSCLC): 2.36 µM
- TGI (A549 NSCLC): 21.5 µM
- GI50 (ACHN renal): 13.3 µM
- TGI (ACHN renal): 27 µM
- GI50 (BT-549 breast): 14.4 µM
- TGI (BT-549 breast): 29.1 µM
- GI50 (CAKI-1 renal): 0.456 µM
- TGI (CAKI-1 renal): 2.64 µM
- GI50 (CCRF-CEM leukemia): 18.5 µM
- TGI (CCRF-CEM leukemia): 66.5 µM
- GI50 (COLO 205 colon): 3 µM
- TGI (COLO 205 colon): 10.5 µM
- GI50 (DU-145 prostate): 15.4 µM
- TGI (DU-145 prostate): 34.2 µM
- GI50 (HCC-2998 colon): 7.68 µM
- TGI (HCC-2998 colon): 23.6 µM
- GI50 (HCT-116 colon): 0.0723 µM
- TGI (HCT-116 colon): 8.31 µM
- GI50 (HCT-15 colon): 12.4 µM
- TGI (HCT-15 colon): 29.9 µM
- GI50 (HL-60(TB) leukemia): 7.25 µM
- TGI (HL-60(TB) leukemia): 32.7 µM
- GI50 (HOP-62 NSCLC): 2.67 µM
- TGI (HOP-62 NSCLC): 20.2 µM
- GI50 (HOP-92 NSCLC): 0.195 µM
- TGI (HOP-92 NSCLC): 9.25 µM
- GI50 (HS 578T breast): 16.4 µM
- TGI (HS 578T breast): 44.7 µM
- GI50 (HT29 colon): 3.74 µM
- TGI (HT29 colon): 17.1 µM
- GI50 (IGROV1 ovarian): 0.0726 µM
- TGI (IGROV1 ovarian): 0.38 µM
- GI50 (K-562 leukemia): 1.04 µM
- TGI (K-562 leukemia): 23 µM
- GI50 (KM12 colon): 13 µM
- TGI (KM12 colon): 26.6 µM
- GI50 (LOX IMVI melanoma): 14.4 µM
- TGI (LOX IMVI melanoma): 28.2 µM
- GI50 (M14 melanoma): 15.3 µM
- TGI (M14 melanoma): 32.4 µM
- GI50 (MALME-3M melanoma): 15 µM
- TGI (MALME-3M melanoma): 30.4 µM
- GI50 (MCF7 breast): 0.208 µM
- TGI (MCF7 breast): 12.8 µM
- GI50 (MDA-MB-231 breast): 13 µM
- TGI (MDA-MB-231 breast): 26.7 µM
- GI50 (MDA-MB-435): 14.4 µM
- TGI (MDA-MB-435): 30 µM
- GI50 (MOLT-4 leukemia): 18.3 µM
- TGI (MOLT-4 leukemia): 51 µM
- GI50 (NCI-H226 lung): 0.0801 µM
- TGI (NCI-H226 lung): 0.214 µM
- GI50 (NCI-H23 lung): 12.3 µM
- TGI (NCI-H23 lung): 33.5 µM
- GI50 (NCI-H460 lung): 0.205 µM
- TGI (NCI-H460 lung): 12.5 µM
- GI50 (NCI-H522 lung): 13.5 µM
- TGI (NCI-H522 lung): 29.4 µM
- GI50 (NCI/ADR-RES ovarian): 14.8 µM
- TGI (NCI/ADR-RES ovarian): 38.4 µM
- GI50 (OVCAR-3 ovarian): 0.342 µM
- TGI (OVCAR-3 ovarian): 2.31 µM
- GI50 (OVCAR-4 ovarian): 0.168 µM
- TGI (OVCAR-4 ovarian): 2.73 µM
- GI50 (OVCAR-5 ovarian): 0.0668 µM
- TGI (OVCAR-5 ovarian): 0.287 µM
- GI50 (OVCAR-8 ovarian): 13.4 µM
- TGI (OVCAR-8 ovarian): 34.7 µM
- GI50 (PC-3 prostate): 12.5 µM
- TGI (PC-3 prostate): 27.1 µM
- GI50 (RPMI-8226 leukemia): 2.48 µM
- TGI (RPMI-8226 leukemia): 26.1 µM
- GI50 (RXF 393 renal): 2.54 µM
- TGI (RXF 393 renal): 17.5 µM
- GI50 (SF-268 CNS): 15.5 µM
- TGI (SF-268 CNS): 31.3 µM
- GI50 (SF-295 CNS): 0.379 µM
- TGI (SF-295 CNS): 14.3 µM
- GI50 (SF-539 CNS): 15.1 µM
- TGI (SF-539 CNS): 29.5 µM
- GI50 (SK-MEL-2 melanoma): 4.43 µM
- TGI (SK-MEL-2 melanoma): 20.2 µM
- GI50 (SK-MEL-28 melanoma): 13.7 µM
- TGI (SK-MEL-28 melanoma): 26.8 µM
- GI50 (SK-MEL-5 melanoma): 11.8 µM
- TGI (SK-MEL-5 melanoma): 24.2 µM
- GI50 (SK-OV-3 ovarian): 10.5 µM
- TGI (SK-OV-3 ovarian): 25.7 µM
- GI50 (SN12C renal): 12.1 µM
- TGI (SN12C renal): 25.2 µM
- GI50 (SNB-19 CNS): 14.9 µM
- TGI (SNB-19 CNS): 41.2 µM
- GI50 (SNB-75 CNS): 8.49 µM
- TGI (SNB-75 CNS): 27.3 µM
- GI50 (SR leukemia): 17.2 µM
- TGI (SR leukemia): 43.6 µM
- GI50 (SW-620 colon): 0.652 µM
- TGI (SW-620 colon): 18.6 µM
- GI50 (T-47D breast): 0.118 µM
- TGI (T-47D breast): 0.782 µM
- GI50 (TK-10 renal): 0.0425 µM
- TGI (TK-10 renal): 0.236 µM
- GI50 (U251 CNS): 0.992 µM
- TGI (U251 CNS): 16.4 µM
- GI50 (UACC-257 melanoma): 0.0986 µM
- TGI (UACC-257 melanoma): 0.429 µM
- GI50 (UACC-62 melanoma): 0.115 µM
- TGI (UACC-62 melanoma): 0.909 µM
- GI50 (UO-31 renal): 3.24 µM
- TGI (UO-31 renal): 21.4 µM
